# Where a name gives a salt, the structure may show the parent alone. Read-outs that look alike come from different tables or passages of the source.
# Set-up: species or system Yorkshire-desi crossbred pigs
# Details: pig, in vivo
# Description: To assess the feasibility and safety of the developed device, in vivo implantation of nanostent was done in the porcine bile duct under fluoroscopic guidance via ERCP procedure. In this embodiment, in a total of 14 animals (Yorkshire-desi crossbred pigs), nanostents and control SEMS (SEMS without nanoyarns) were implanted and analyzed for two-time points (3 and 5 months). The fluoroscopic images of the control and nanostent implanted bile duct reveal the proper deployment of the stents in the bile duct. This points to the feasibility of implantation of the nanoyarn-integrated SEMS in vivo.
# Endoscopic follow-up was performed in the animals at regular intervals. Blood and bile were collected for analysis of the drug content at intermittent time periods. These were then tested for the presence of GEM and its metabolite by HPLC. GEM and its metabolite DFDU could not be detected in blood up to the limit of its detection i.e., 300 ng. […] The drug content in bile was also undetectable, owing to the drug release happening in a continuously flowing bile fluid. However, the presence of remnant drug could be measured in the nanoyarns taken from explanted stents at 3 and 5 months, to be ˜1000 μg and 50 μg respectively. This confirms that the nanoyarn integrated with the stent can provide a localized drug release over prolonged time periods.
drug/metabolite in blood [ng],drug/metabolite in blood (Yorkshire-desi crossbred) [ng],drug content in bile,SMILES
< 300,–,–,O=c1ccn(C2OC(CO)C(O)C2(F)F)c(=O)[nH]1 (stereo not drawn) [DFDU]
–,< 300,undetectable,"Nc1ccn([C@@H]2O[C@H](CO)[C@@H](O)C2(F)F)c(=O)n1 [GEM, Gemcitabine hydrochloride]"

# Reference: US20250058027A1, “Nanoyarns as Drug-Releasing Facilitator” (Amrita Vishwa Vidyapeetham, priority 2023, published 2025)
